Measurements taken from ChEMBL document CHEMBL3621186, “Design, synthesis and antitumor activity of non-camptothecin topoisomerase I inhibitors” (Bioorg Med Chem Lett, 2015).
Calls of active or inactive are those of the source. The calls are words filed in the database; no cut-off is given here.

How the values were obtained:
HCT-116 [1] = test: Cytotoxicity against human HCT116 cells assessed as inhibition of cell proliferation at 10 uM by MTT assay relative to control; type: functional
PC-3 [2] = test: Cytotoxicity against human PC3 cells assessed as inhibition of cell proliferation at 10 uM by MTT assay relative to control; type: functional
U-87 MG [3] = test: Cytotoxicity against human U87MG cells assessed as inhibition of cell proliferation at 10 uM by MTT assay relative to control; type: functional, U-87MG ATCC
HepG2 [4] = test: Cytotoxicity against human HepG2 cells assessed as inhibition of cell proliferation at 10 uM by MTT assay relative to control; type: functional
SK-OV-3 [5] = test: Cytotoxicity against human SKOV3 cells assessed as inhibition of cell proliferation at 10 uM by MTT assay relative to control; type: functional
HCT-116 [6] = test: Cytotoxicity against human HCT116 cells assessed as inhibition of cell proliferation by MTT assay; type: functional, cell-based
PC-3 [7] = test: Cytotoxicity against human PC3 cells assessed as inhibition of cell proliferation by MTT assay; type: functional, cell-based
U-87 MG [8] = test: Cytotoxicity against human U87MG cells assessed as inhibition of cell proliferation by MTT assay; type: functional, cell-based, U-87MG ATCC
HepG2 [9] = test: Cytotoxicity against human HepG2 cells assessed as inhibition of cell proliferation by MTT assay; type: functional, cell-based
SK-OV-3 [10] = test: Cytotoxicity against human SKOV3 cells assessed as inhibition of cell proliferation by MTT assay; type: functional, cell-based
[11] = target: T1, DNA topoisomerase 1 (Homo sapiens) (UniProt P11387); test: Inhibition of recombinant human DNA topoisomerase-1 assessed as relaxation of supercoiled pBR322 DNA at 50 uM after 30 mins by agarose gel electrophoresis
T1 sequence (whole entry): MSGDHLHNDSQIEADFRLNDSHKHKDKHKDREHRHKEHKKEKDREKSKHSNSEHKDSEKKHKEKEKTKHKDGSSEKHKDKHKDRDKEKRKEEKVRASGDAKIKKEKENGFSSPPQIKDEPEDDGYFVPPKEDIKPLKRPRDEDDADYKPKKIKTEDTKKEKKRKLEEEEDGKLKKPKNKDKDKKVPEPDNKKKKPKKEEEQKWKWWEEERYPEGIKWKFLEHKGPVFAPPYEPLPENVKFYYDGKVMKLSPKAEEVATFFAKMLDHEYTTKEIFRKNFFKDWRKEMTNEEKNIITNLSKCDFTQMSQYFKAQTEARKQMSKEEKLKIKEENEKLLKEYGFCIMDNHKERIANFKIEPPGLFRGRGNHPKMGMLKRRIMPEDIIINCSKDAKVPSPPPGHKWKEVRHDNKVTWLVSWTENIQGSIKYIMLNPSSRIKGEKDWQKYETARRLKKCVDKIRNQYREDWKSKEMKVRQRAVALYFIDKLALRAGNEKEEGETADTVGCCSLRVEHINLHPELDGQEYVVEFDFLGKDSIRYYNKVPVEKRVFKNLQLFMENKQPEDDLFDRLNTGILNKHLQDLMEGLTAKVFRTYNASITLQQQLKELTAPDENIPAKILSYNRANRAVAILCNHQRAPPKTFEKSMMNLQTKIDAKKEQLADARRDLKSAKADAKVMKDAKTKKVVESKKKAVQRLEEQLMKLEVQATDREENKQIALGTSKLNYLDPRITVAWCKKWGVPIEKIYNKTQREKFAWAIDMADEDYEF

SMILES: O=C(NCCCO)C1c2c(ccc(Br)c2O)-n2c(=O)c3ccccc3c(=O)n21 (stereo not given)
- inhibition at 10 µM (HCT-116 [1]): 5.4%
- inhibition at 10 µM (PC-3 [2]): 5.3%
- inhibition at 10 µM (U-87 MG [3]): -4.7%
- inhibition at 10 µM (HepG2 [4]): -8.92%
- inhibition at 10 µM (SK-OV-3 [5]): -4.25%

SMILES: CN(C)CCCNC(=O)C1c2c(O)cccc2-n2c(=O)c3ccccc3c(=O)n21 (stereo not given)
- inhibition at 10 µM (HCT-116 [1]): -4.5%
- inhibition at 10 µM (PC-3 [2]): 11.1%
- inhibition at 10 µM (U-87 MG [3]): -4.7%
- inhibition at 10 µM (HepG2 [4]): -8.92%
- inhibition at 10 µM (SK-OV-3 [5]): -4.01%

SMILES: COc1ccc2nc3c(nc2c1)C(=O)c1ccccc1-3
- inhibition at 10 µM (HCT-116 [1]): 8.68%
- inhibition at 10 µM (PC-3 [2]): -4.44%
- inhibition at 10 µM (U-87 MG [3]): -14.4%
- inhibition at 10 µM (HepG2 [4]): 14.7%
- inhibition at 10 µM (SK-OV-3 [5]): 8.07%

SMILES: CN(C)CCCn1c2c(c3c4ccccc4c(O)cc31)C(=O)c1ccccc1C2=O
- inhibition at 10 µM (HCT-116 [1]): 91.2%
- inhibition at 10 µM (PC-3 [2]): 59.6%
- inhibition at 10 µM (U-87 MG [3]): 86%
- inhibition at 10 µM (HepG2 [4]): 88%
- inhibition at 10 µM (SK-OV-3 [5]): 77.4%
- IC50 (HCT-116 [6]): 996 nM
- IC50 (PC-3 [7]): 612 nM
- IC50 (U-87 MG [8]): 325 nM
- IC50 (HepG2 [9]): 1970 nM
- IC50 (SK-OV-3 [10]): 783 nM
- inhibition [11]: Active

SMILES: COc1ccc2[nH]c3c(c2c1)C(=O)c1ccccc1C3=O
- inhibition at 10 µM (HCT-116 [1]): 76.2%
- inhibition at 10 µM (PC-3 [2]): 8.56%
- inhibition at 10 µM (U-87 MG [3]): 49%
- inhibition at 10 µM (HepG2 [4]): 26.6%
- inhibition at 10 µM (SK-OV-3 [5]): 57.6%

SMILES: O=C1c2ccccc2-c2nc3cc(C(F)(F)F)ccc3nc21
- inhibition at 10 µM (HCT-116 [1]): 12.2%
- inhibition at 10 µM (PC-3 [2]): -1.15%
- inhibition at 10 µM (U-87 MG [3]): -7.67%
- inhibition at 10 µM (HepG2 [4]): 42.9%
- inhibition at 10 µM (SK-OV-3 [5]): -0.82%

SMILES: CCOC(=O)C1c2c(ccc(Br)c2O)-n2c(=O)c3ccccc3c(=O)n21 (stereo not given)
- inhibition at 10 µM (HCT-116 [1]): 3.3%
- inhibition at 10 µM (PC-3 [2]): 0.8%
- inhibition at 10 µM (U-87 MG [3]): 4.1%
- inhibition at 10 µM (HepG2 [4]): 2.54%
- inhibition at 10 µM (SK-OV-3 [5]): -3.43%

SMILES: O=C1c2ccccc2-c2nc3cc4ccccc4cc3nc21
- inhibition at 10 µM (HCT-116 [1]): 7.32%
- inhibition at 10 µM (PC-3 [2]): 11.8%
- inhibition at 10 µM (U-87 MG [3]): -11.5%
- inhibition at 10 µM (HepG2 [4]): 2.82%
- inhibition at 10 µM (SK-OV-3 [5]): -8.16%

SMILES: O=C1c2ccccc2-c2nc3ccc(C(F)(F)F)cc3nc21
- inhibition at 10 µM (HCT-116 [1]): 17.2%
- inhibition at 10 µM (PC-3 [2]): 15.9%
- inhibition at 10 µM (U-87 MG [3]): -15.6%
- inhibition at 10 µM (HepG2 [4]): 43.8%
- inhibition at 10 µM (SK-OV-3 [5]): 14.2%

SMILES: COc1ccc2nc3c(nc2c1)-c1ccccc1C3=O
- inhibition at 10 µM (HCT-116 [1]): 16.9%
- inhibition at 10 µM (PC-3 [2]): -1.15%
- inhibition at 10 µM (U-87 MG [3]): -7.74%
- inhibition at 10 µM (HepG2 [4]): 6.56%
- inhibition at 10 µM (SK-OV-3 [5]): -7.19%

SMILES: O=C1c2ccccc2-c2nc3ccccc3nc21
- inhibition at 10 µM (HCT-116 [1]): -1.83%
- inhibition at 10 µM (PC-3 [2]): -8.39%
- inhibition at 10 µM (U-87 MG [3]): -14.5%
- inhibition at 10 µM (HepG2 [4]): 53.2%
- inhibition at 10 µM (SK-OV-3 [5]): 10.1%

SMILES: O=C(NCCO)C1c2c(O)cccc2-n2c(=O)c3ccccc3c(=O)n21 (stereo not given)
- inhibition at 10 µM (HCT-116 [1]): -0.6%
- inhibition at 10 µM (PC-3 [2]): 5%
- inhibition at 10 µM (U-87 MG [3]): -0.6%
- inhibition at 10 µM (HepG2 [4]): -0.87%
- inhibition at 10 µM (SK-OV-3 [5]): -7.14%

SMILES: CN(C)CCn1c2c(c3c4ccccc4c(O)cc31)C(=O)c1ccccc1C2=O
- inhibition at 10 µM (HCT-116 [1]): 92%
- inhibition at 10 µM (PC-3 [2]): 66.5%
- inhibition at 10 µM (U-87 MG [3]): 78.8%
- inhibition at 10 µM (HepG2 [4]): 88.2%
- inhibition at 10 µM (SK-OV-3 [5]): 82.4%
- IC50 (HCT-116 [6]): 706 nM
- IC50 (PC-3 [7]): 389 nM
- IC50 (U-87 MG [8]): 169 nM
- IC50 (HepG2 [9]): 844 nM
- IC50 (SK-OV-3 [10]): 1010 nM
- inhibition [11]: Active

SMILES: CN(C)CCNC(=O)C1c2c(ccc(Br)c2O)-n2c(=O)c3ccccc3c(=O)n21 (stereo not given)
- inhibition at 10 µM (HCT-116 [1]): -5.8%
- inhibition at 10 µM (PC-3 [2]): 14.3%
- inhibition at 10 µM (U-87 MG [3]): 0.1%
- inhibition at 10 µM (HepG2 [4]): 3.89%
- inhibition at 10 µM (SK-OV-3 [5]): -6.16%

SMILES: CN(C)CCNC(=O)C1c2c(O)cccc2-n2c(=O)c3ccccc3c(=O)n21 (stereo not given)
- inhibition at 10 µM (HCT-116 [1]): -4.2%
- inhibition at 10 µM (PC-3 [2]): 4%
- inhibition at 10 µM (U-87 MG [3]): 1.1%
- inhibition at 10 µM (HepG2 [4]): -2.82%
- inhibition at 10 µM (SK-OV-3 [5]): -1.46%

SMILES: CCOC(=O)C1C2=C(CCCC2=O)n2c(=O)c3ccccc3c(=O)n21 (stereo not given)
- inhibition at 10 µM (HCT-116 [1]): 3.5%
- inhibition at 10 µM (PC-3 [2]): 11.1%
- inhibition at 10 µM (U-87 MG [3]): 1.5%
- inhibition at 10 µM (HepG2 [4]): 12%
- inhibition at 10 µM (SK-OV-3 [5]): -4.89%

SMILES: CN(C)CCCNC(=O)C1c2c(ccc(Br)c2O)-n2c(=O)c3ccccc3c(=O)n21 (stereo not given)
- inhibition at 10 µM (HCT-116 [1]): -5.7%
- inhibition at 10 µM (PC-3 [2]): 6.4%
- inhibition at 10 µM (U-87 MG [3]): -2.5%
- inhibition at 10 µM (HepG2 [4]): -7.99%
- inhibition at 10 µM (SK-OV-3 [5]): -4.1%

SMILES: O=C(NCCCO)C1c2c(O)cccc2-n2c(=O)c3ccccc3c(=O)n21 (stereo not given)
- inhibition at 10 µM (HCT-116 [1]): -3.8%
- inhibition at 10 µM (PC-3 [2]): 7.6%
- inhibition at 10 µM (U-87 MG [3]): 2.4%
- inhibition at 10 µM (HepG2 [4]): -3.15%
- inhibition at 10 µM (SK-OV-3 [5]): -5.15%

SMILES: O=C(NCCO)C1c2c(ccc(Br)c2O)-n2c(=O)c3ccccc3c(=O)n21 (stereo not given)
- inhibition at 10 µM (HCT-116 [1]): 3.7%
- inhibition at 10 µM (PC-3 [2]): 6.5%
- inhibition at 10 µM (U-87 MG [3]): 0.4%
- inhibition at 10 µM (HepG2 [4]): 15.1%
- inhibition at 10 µM (SK-OV-3 [5]): -4.34%

SMILES: O=C1c2ccccc2-c2nc3cc(F)ccc3nc21
- inhibition at 10 µM (HCT-116 [1]): 22.7%
- inhibition at 10 µM (PC-3 [2]): 2.65%
- inhibition at 10 µM (U-87 MG [3]): -13.2%
- inhibition at 10 µM (HepG2 [4]): 50.5%
- inhibition at 10 µM (SK-OV-3 [5]): 9.6%

SMILES: O=C1c2ccccc2-c2nc3cccnc3nc21
- inhibition at 10 µM (HCT-116 [1]): 71.9%
- inhibition at 10 µM (PC-3 [2]): 52.7%
- inhibition at 10 µM (U-87 MG [3]): 20.8%
- inhibition at 10 µM (HepG2 [4]): 55.4%
- inhibition at 10 µM (SK-OV-3 [5]): 13.2%
- IC50 (HCT-116 [6]): 44600 nM
- IC50 (PC-3 [7]): 4380 nM
- IC50 (HepG2 [9]): 33800 nM

SMILES: Cc1ccc2nc3c(nc2c1)C(=O)c1ccccc1-3
- inhibition at 10 µM (HCT-116 [1]): 6.32%
- inhibition at 10 µM (PC-3 [2]): -8.92%
- inhibition at 10 µM (U-87 MG [3]): -13.9%
- inhibition at 10 µM (HepG2 [4]): 6.44%
- inhibition at 10 µM (SK-OV-3 [5]): 11.2%

SMILES: CCOC(=O)C1c2c(O)cccc2-n2c(=O)c3ccccc3c(=O)n21 (stereo not given)
- inhibition at 10 µM (HCT-116 [1]): 0.4%
- inhibition at 10 µM (PC-3 [2]): 4.9%
- inhibition at 10 µM (U-87 MG [3]): 1.9%
- inhibition at 10 µM (HepG2 [4]): 11.2%
- inhibition at 10 µM (SK-OV-3 [5]): -3.97%

SMILES: O=C1c2ccccc2-c2nc3ncccc3nc21
- inhibition at 10 µM (HCT-116 [1]): 1.49%
- inhibition at 10 µM (PC-3 [2]): 36.2%
- inhibition at 10 µM (U-87 MG [3]): -23.3%
- inhibition at 10 µM (HepG2 [4]): 15.2%
- inhibition at 10 µM (SK-OV-3 [5]): 2.89%
